# From patent publication US20070049593A1 (priority 2004, published 2007)
# Counter-ions that a name gives are not always drawn.
# Biological target: T1, HCV polymerase (Hepatitis C virus genotype 1b, UniProt P26663)
# T1 construct: a region encoding NS5B (J Virol 1991 March, 65(3), 1105-13, 544 amino acids after deletion of 47 amino acids on the C-terminal); 6xHis (C); made in house; host or cells: Escherichia coli
# Assay: biochemical
# Design: species or system HCV BK strain
# Outline: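 Recombinant HCV BK-strain NS5B (C-terminal 47 aa deleted, His6-tagged, E. coli), 0.5 μg/ml, run with 5 μg/ml in vitro-transcribed RNA template (polyU/3′X), ATP/GTP/CTP 50 μM, UTP 2 μM plus [3H]UTP, pH 7.5, 25° C, 90 min. TCA-precipitated RNA counted by scintillation; IC50 from activity with vs without compound.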
# T1 sequence (P26663 2420-2963): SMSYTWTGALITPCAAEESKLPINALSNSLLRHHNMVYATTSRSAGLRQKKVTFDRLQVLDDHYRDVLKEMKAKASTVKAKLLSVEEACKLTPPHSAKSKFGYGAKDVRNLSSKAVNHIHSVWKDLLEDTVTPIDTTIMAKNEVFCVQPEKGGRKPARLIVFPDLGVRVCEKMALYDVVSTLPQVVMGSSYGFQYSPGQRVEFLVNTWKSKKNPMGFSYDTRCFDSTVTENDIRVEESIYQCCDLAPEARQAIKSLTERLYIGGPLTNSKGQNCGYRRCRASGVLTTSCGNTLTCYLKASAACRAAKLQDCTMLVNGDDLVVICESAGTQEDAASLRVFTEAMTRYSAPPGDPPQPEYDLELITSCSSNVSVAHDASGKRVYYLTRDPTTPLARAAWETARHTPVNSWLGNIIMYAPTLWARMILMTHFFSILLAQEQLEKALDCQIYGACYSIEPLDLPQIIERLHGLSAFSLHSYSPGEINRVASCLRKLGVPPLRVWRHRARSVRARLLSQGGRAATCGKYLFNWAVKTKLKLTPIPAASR
row,SMILES,IC50
1,"Cn1c(C(C)(C)NC(=O)c2ccc3c(C4CCCCC4)c4n(c3c2)CCOc2ccccc2-4)nc2ccccc21 [Example 2-285, N-[1-methyl-1-(1-methyl-1H-benzimidazol-2-yl)ethyl]-12-cyclohexyl-6,7-dihydro-5-oxa-7a-azadibenzo[a,e]azulene-9-carboxamide]",< 100 nM
2,"Cn1c(NC(=O)c2ccc3c(C4CCCCC4)c4n(c3c2)CCOc2ccccc2-4)nc2ccccc21 [Example 2-286, N-(1-methyl-1H-benzimidazol-2-yl)-12-cyclohexyl-6,7-dihydro-5-oxa-7a-azadibenzo[a,e]azulene-9-carboxamide]",100 to 1000 nM
3,"O=C(O)CN1CCC(CO)(NC(=O)c2ccc3c(C4CCCCC4)c4n(c3c2)CCOc2ccccc2-4)CC1 [Example 2-287, {4-[(12-cyclohexyl-6,7-dihydro-5-oxa-7a-azadibenzo[a,e]azulene-9-carbonyl)amino]-4-hydroxymethylpiperidin-1-yl}acetic acid monohydrochloride]",100 to 1000 nM
4,"O=C(NCc1nc2ccccc2n1CCO)c1ccc2c(C3CCCCC3)c3n(c2c1)CCOc1ccccc1-3 [Example 2-288, N-[1-(2-hydroxyethyl)-1H-benzimidazol-2-ylmethyl]-12-cyclohexyl-6,7-dihydro-5-oxa-7a-azadibenzo[a,e]azulene-9-carboxamide]",< 100 nM
5,"CC(C)(NC(=O)c1ccc2c(C3CCCCC3)c3n(c2c1)CCOc1ccccc1-3)C(=O)N1CCOCC1 [Example 2-289, N-[1,1-dimethyl-2-(morpholin-4-yl)-2-oxoethyl]-12-cyclohexyl-6,7-dihydro-5-oxa-7a-azadibenzo[a,e]azulene-9-carboxamide]",< 100 nM
6,"CN1CCN(C(=O)C(C)(C)NC(=O)c2ccc3c(C4CCCCC4)c4n(c3c2)CCOc2ccccc2-4)CC1 [Example 2-290, N-[1,1-dimethyl-2-(4-methylpiperazin-1-yl)-2-oxoethyl]-12-cyclohexyl-6,7-dihydro-5-oxa-7a-azadibenzo[a,e]azulene-9-carboxamide]",100 to 1000 nM
7,"CC(C)(NC(=O)c1ccc2c(C3CCCCC3)c3n(c2c1)CCOc1ccccc1-3)C(=O)N1CCN(c2ccccc2)CC1 [Example 2-291, N-[1,1-dimethyl-2-oxo-2-(4-phenylpiperazin-1-yl)ethyl]-12-cyclohexyl-6,7-dihydro-5-oxa-7a-azadibenzo[a,e]azulene-9-carboxamide]",< 100 nM
8,"Cc1nc(C(C)(C)NC(=O)c2ccc3c(C4CCCCC4)c4n(c3c2)CCOc2ccccc2-4)n(CCO)c1C [Example 2-292, N-{1-[1-(2-hydroxyethyl)-4,5-dimethyl-1H-imidazol-2-yl]-1-methylethyl}-12-cyclohexyl-6,7-dihydro-5-oxa-7a-azadibenzo[a,e]azulene-9-carboxamide]",100 to 1000 nM
9,"Cc1nc(C(C)(C)NC(=O)c2ccc3c(C4CCCCC4)c4n(c3c2)CCOc2ccccc2-4)n(CC(=O)N(C)C)c1C [Example 2-293, N-[1-(1-dimethylcarbamoylmethyl-4,5-dimethyl-1H-imidazol-2-yl)-1-methylethyl]-12-cyclohexyl-6,7-dihydro-5-oxa-7a-azadibenzo[a,e]azulene-9-carboxamide]",100 to 1000 nM
10,"COC1CCN(C(=O)C(C)(C)NC(=O)c2ccc3c(C4CCCCC4)c4n(c3c2)CCOc2ccccc2-4)CC1 [Example 2-294, N-[2-(4-methoxypiperidin-1-yl)-1,1-dimethyl-2-oxoethyl]-12-cyclohexyl-6,7-dihydro-5-oxa-7a-azadibenzo[a,e]azulene-9-carboxamide]",< 100 nM
11,"COCCN(C)C(=O)[C@H](Cc1ccc(O)cc1)NC(=O)c1ccc2c(C3CCCCC3)c3n(c2c1)CCOc1cc(OC)ccc1-3 [Example 2-295, N-{(S)-2-(4-hydroxyphenyl)-1-[N-(2-methoxyethyl)-N-methylcarbamoyl]ethyl}-12-cyclohexyl-3-methoxy-6,7-dihydro-5-oxa-7a-azadibenzo[a,e]azulene-9-carboxamide]",< 100 nM
12,"COCCNC(=O)[C@H](Cc1ccc(O)cc1)NC(=O)c1ccc2c(C3CCCCC3)c3n(c2c1)CCOc1cc(OC)ccc1-3 [Example 2-296, N—[(S)-2-(4-hydroxyphenyl)-1-(2-methoxyethylcarbamoyl)ethyl]-12-cyclohexyl-3-methoxy-6,7-dihydro-5-oxa-7a-azadibenzo[a,e]azulene-9-carboxamide]",< 100 nM
13,"COc1ccc2c(c1)OCCn1c-2c(C2CCCCC2)c2ccc(C(=O)N[C@@H](Cc3ccc(O)cc3)C(=O)N3CCC(OC)CC3)cc21 [Example 2-297, N—[(S)-1-(4-hydroxybenzyl)-2-(4-methoxypiperidin-1-yl)-2-oxoethyl]-12-cyclohexyl-3-methoxy-6,7-dihydro-5-oxa-7a-azadibenzo[a,e]azulene-9-carboxamide]",< 100 nM
14,"O=C(O)c1ccc2c(C3CCCCC3)c3n(c2c1)CCOc1c(-c2cccnc2)cccc1-3 [Example 2-298, 12-cyclohexyl-4-(pyridin-3-yl)-6,7-dihydro-5-oxa-7a-azadibenzo[a,e]azulene-9-carboxylic acid hydrochloride]",< 100 nM
15,"O=C(O)c1ccc2c(C3CCCCC3)c3n(c2c1)CCOc1c(-c2ccncc2)cccc1-3 [Example 2-299, 12-cyclohexyl-4-(pyridin-4-yl)-6,7-dihydro-5-oxa-7a-azadibenzo[a,e]azulene-9-carboxylic acid monohydrochloride]",< 100 nM
16,"CCCN(CCN1CCCCC1)c1cccc2c1OCCn1c-2c(C2CCCCC2)c2ccc(C(N)=O)cc21 [Example 2-300, 12-cyclohexyl-4-{N-[2-(piperidin-1-yl)ethyl]-N-propylamino}-6,7-dihydro-5-oxa-7a-azadibenzo[a,e]azulene-9-carboxamide]",< 100 nM
17,"CCN1CCN(C(=O)CN(CC)c2cccc3c2OCCn2c-3c(C3CCCCC3)c3ccc(C(=O)O)cc32)CC1 [Example 2-301, 12-cyclohexyl-4-{N-ethyl-N-[2-(4-ethylpiperazin-1-yl)-2-oxoethyl]amino}-6,7-dihydro-5-oxa-7a-azadibenzo[a,e]azulene-9-carboxylic acid dihydrochloride]",< 100 nM
18,"O=C(O)c1ccc2c(C3CCCCC3)c3n(c2c1)CCOc1c(-c2cccc(CO)c2)cccc1-3 [Example 2-302, 12-cyclohexyl-4-(3-hydroxymethylphenyl)-6,7-dihydro-5-oxa-7a-azadibenzo[a,e]azulene-9-carboxylic acid]",< 100 nM
19,"CC(=O)N1CCN(C(=O)C(C)(C)NC(=O)c2ccc3c(C4CCCCC4)c4n(c3c2)CCOc2ccccc2-4)CC1 [Example 2-303, N-[2-(4-acetylpiperazin-1-yl)-1,1-dimethyl-2-oxoethyl]-12-cyclohexyl-6,7-dihydro-5-oxa-7a-azadibenzo[a,e]azulene-9-carboxamide]",< 100 nM
20,"CC(C)(NC(=O)c1ccc2c(C3CCCCC3)c3n(c2c1)CCOc1ccccc1-3)C(=O)N1CCN(CCO)CC1 [Example 2-304, N-{2-[4-(2-hydroxyethyl)piperazin-1-yl]-1,1-dimethyl-2-oxoethyl}-12-cyclohexyl-6,7-dihydro-5-oxa-7a-azadibenzo[a,e]azulene-9-carboxamide]",< 100 nM
21,"COCCN1CCN(C(=O)C(C)(C)NC(=O)c2ccc3c(C4CCCCC4)c4n(c3c2)CCOc2ccccc2-4)CC1 [Example 2-305, N-{2-[4-(2-methoxyethyl)piperazin-1-yl]-1,1-dimethyl-2-oxoethyl}-12-cyclohexyl-6,7-dihydro-5-oxa-7a-azadibenzo[a,e]azulene-9-carboxamide]",< 100 nM
22,"COc1cccc2c1OCCn1c-2c(C2CCCCC2)c2ccc(C(=O)NC(C)(C)C(=O)Nc3ccc(C(=O)O)cc3)cc21 [Example 2-306, 4-{2-[(12-cyclohexyl-4-methoxy-6,7-dihydro-5-oxa-7a-azadibenzo[a,e]azulene-9-carbonyl)amino]-2-methylpropionylamino}benzoic acid]",< 100 nM
23,"COc1ccc(-c2cnc(C(C)(C)NC(=O)c3ccc4c(C5CCCCC5)c5n(c4c3)CCOc3ccccc3-5)[nH]2)cc1 [Example 2-307, N-{1-[5-(4-methoxyphenyl)-1H-imidazol-2-yl]-1-methylethyl}-12-cyclohexyl-6,7-dihydro-5-oxa-7a-azadibenzo[a,e]azulene-9-carboxamide]",< 100 nM
24,"COc1ccc2c(c1)OCCn1c-2c(C2CCCCC2)c2ccc(C(=O)N[C@@H](Cc3ccc(O)cc3)CN(C)C)cc21 [Example 2-308, N—[(S)-2-dimethylamino-1-(4-hydroxybenzyl)ethyl]-12-cyclohexyl-3-methoxy-6,7-dihydro-5-oxa-7a-azadibenzo[a,e]azulene-9-carboxamide]",< 100 nM
25,"COC(=O)[C@H](CCCCNC(=O)OC(C)(C)C)NC(=O)c1ccc2c(C3CCCCC3)c3n(c2c1)CCOc1cc(OC)ccc1-3 [Example 2-309, methyl (S)-6-tert-butoxycarbonylamino-2-[(12-cyclohexyl-3-methoxy-6,7-dihydro-5-oxa-7a-azadibenzo[a,e]azulene-9-carbonyl)amino]hexanoate]",100 to 1000 nM
26,"COc1ccc2c(c1)OCCn1c-2c(C2CCCCC2)c2ccc(C(=O)N[C@@H](Cc3c[nH]cn3)C(=O)O)cc21 [Example 2-310, (S)-2-[(12-cyclohexyl-3-methoxy-6,7-dihydro-5-oxa-7a-azadibenzo[a,e]azulene-9-carbonyl)amino]-3-(1H-imidazol-4-yl)propionic acid]",< 100 nM
27,"CC(C)(NC(=O)c1ccc2c(C3CCCCC3)c3n(c2c1)CCOc1ccccc1-3)c1nc2cc(-c3nnn[nH]3)ccc2[nH]1 [Example 2-311, N-{1-methyl-1-[5-(1H-tetrazol-5-yl)-1H-benzimidazol-2-yl]ethyl}-12-cyclohexyl-6,7-dihydro-5-oxa-7a-azadibenzo[a,e]azulene-9-carboxamide]",< 100 nM
